In series [1] the test system is four bacterial suspensions (Escherichia coli, Salmonella, Staphylococcus aureus and Clostridium perfringens). The series is classed as cell-based. The following applies: trypsin 250U/mL, pH 8.0, 37° C., 30-180 min, TrSub at MIC, FIG. 5B.
In series [2] the test system is Escherichia coli, Salmonella, Staphylococcus aureus and Clostridium perfringens. It counts as cell-based. The following applies: on Escherichia coli.
Series [3] relates to Clostridium perfringens. The series is classed as cell-based. The following applies: concentration inhibiting growth of 99.9% bacteria, 16h culture on solid medium.
Series [4] has as its system colon bacillus (Escherichia coli). The series is classed as cell-based.
Series [5] relates to Clostridium perfringens. It counts as cell-based. The settings on record: 16 hours at 37° C., 105 CFU/mL, minimum concentration making the hole clear.
The test system of series [6] is salmonella. It counts as cell-based.
Series [7] has as its system salmonella. The series is described as follows: Minimum bactericidal concentration (MBC). It counts as cell-based. The settings on record: concentration inhibiting growth of 99.9% bacteria, 16h culture on solid medium.
Series [8] relates to colon bacillus (Escherichia coli). The following applies: concentration inhibiting growth of 99.9% bacteria, 16h culture on solid medium.
Series [9] concerns Four indicator bacteria (Escherichia coli, Salmonella, Staphylococcus aureus and Clostridium perfringens). It counts as cell-based. The settings on record: FIG. 4.
Series [10] concerns four bacterial suspensions (Escherichia coli, Salmonella, Staphylococcus aureus and Clostridium perfringens). The series is classed as cell-based. The following applies: pepsin 3000 U/mL, pH 2.0, 37° C., 30-180 min, FIG. 5A.

Take “TrSub (EFGAGKAQCAAAWLQCASGGTLGCGGGAVACQNYRQFQCRAA; the amino acid sequence of the recombinant antimicrobial peptide TrSub)”: the stability to trypsin result in series [1] is on record as “poor”. Also, in [1] (Gram-positive bacteria), the “inhibition rate of the two Gram-positive bacteria after trypsin treatment” value is reported as “about 80%”. The “antibacterial activity of the expression product” value in [2] was “inhibitory effect”. In the series on Clostridium perfringens [3], the “MBC Gram-positive bacteria Clostridium perfringens” value amounted to 25 µg/mL. In series [4], the “MIC Gram-negative bacteria colon bacillus” value came to 37.5 µg/mL. Also, in the series on Clostridium perfringens [5], the “MIC Gram-positive bacteria Clostridium perfringens” value is given as 25 µg/mL. Moreover, the “MIC Gram-negative bacteria salmonella” value against salmonella [6] is listed as 37.5 µg/mL. For the same substance, in the series with salmonella [7], the “MBC Gram-negative bacteria salmonella” value worked out at 75 µg/mL. Besides, in series [8], the “MBC Gram-negative bacteria colon bacillus” value came out at 37.5 µg/mL. For the same substance, the “change in the inhibition rate of each bacterium after heat treatment” value in series [9] (boiling water for 20 min) was “almost no change”. Moreover, in series [9] (boiling water, 25 min treatment), the “inhibition rate after heat treatment” value is given as “about 80%”. In [10] (TrSub at MIC), the “inhibition rate to various bacteria after being treated by pepsin” value is given as “above 80%”. Also, in series [10], the stability to pepsin result is “good stability”.

Source of the values: US20230329283A1 (priority 2021, published 2023).
